# Reference: patent US20120183524A1, “MOLECULAR TARGETS FOR TREATMENT OF INFLAMMATION” (University Of Rochester, priority 2007, published 2012)
# Non-standard residues stand in square brackets, D forms with d. Residues, ends and D or L forms follow the SMILES beside them. Nle = CCCC[C@H](N)C(=O)O
# System: RelB
# Assay: RelB, IKKα, NIK and RelA/p65 levels by western blotting in CSE-treated Ramos B-cells
# Format: cell-based, human
# Settings: B-cells pretreated with ALLN 25 μM for 20 min, then CSE 0.5% and 1.0% for 1 h; whole cell lysates, immunoblotting
# Method: MonoMac6-, Ramos B- and WEHI-231-cells were seeded at a density of less than 1×10^6 cells/well (total final volume=2 ml), grown to ˜80-90% confluency in six-well plates containing RPMI 1640 medium with 10% FBS, washed in Ca2+- and Mg2+-free PBS, and then exposed to various treatments in media containing 1% serum. All treatments were performed in duplicate. The cells were treated with CSE (0.5, 1.0 and 5%) for 1 h at 37° C. with 7.5% CO2. At the end of treatment, the cells were washed with cold, sterile Ca2+- and Mg2+-free PBS and were lysed in RIPA buffer as whole lysate (western blotting), and the lysates stored at −80° C. […]
# Lung tissue homogenate samples (cytoplasmic and nuclear proteins) were separated on a 7.5%-12% SDS-PAGE. […] The next day, membranes were washed and incubated for 1 h at room temperature with the appropriate secondary antibody linked to horseradish peroxidase (Dako, Santa Barbara, Calif.), bound complexes were detected with the use of the enhanced chemiluminescence method (Jackson Immunology Research, West Grove, Pa.).
compound,measurement,value
CCCC[C@@H](C=O)NC(=O)[C@H](CC(C)C)NC(=O)[C@H](CC(C)C)NC(C)=O [ALLN] (Ac-Leu-Leu-[Nle]-aldehyde),degradation of RelB in response to CSE,prevented the degradation of RelB
